Data on one substance can be found in patent US7790188B2, “Antifungal protein and usage thereof” (Food Industry Research and Development Institute, priority 2006, dated 2010).

The test system of one assay is P. variotii BCRC 33174. The assay is described as follows: Antifungal activity assay (pathogen antagonistic dosage assay, paper discs on PDA plate). The class given is cell-based, Paecilomyces variotii. The conditions noted are these: 28° C. Here is the method: (§1) The fungal strains for testing the antifungal activities of Monascus strains or isolated and purified antifungal protein, MAFP1, are selected from Helminthosporium panici BCRC 35004 and Paecilomyces variotii BCRC 33174. The fungal strains were inoculated on PDA (Potato Dextrose Agar, Difico Co.) culture plate and cultured at 25° C. for 7 to 14 days. Pathogen antagonistic dosage assays were conducted to confirm the antifungal activity of the purified MAFP1 protein. Fungal blocks of pathogenic fungi (P. variotii BCRC 33174 and H. panici BCRC 35004) were place in the center of PDA plates. 6 mm paper discs with different concentrations of MAFP1 solutions (containing 0 to 0.8 μg of purified MAFP1 protein) were placed surround the fungal block of pathogenic fungus. The plates were cultured at 28° C. and the growth inhibitions of the pathogenic fungi were observed.

In another assay the test system is H. panici BCRC 35004. Described as above. The class given is cell-based, Helminthosporium panici. The conditions noted are these: 28° C. How it is done:
as §1

The mark [1] stands for this setting: discs with 0 to 0.8 μg MAFP1, PDA plate.

Turning to “MAFP1: Antifungal protein of about 7 kDa purified from M. pilosus BCRC 38093 culture broth; mature form, SEQ ID NO: 3 (LSKYGGECSLQHNTCTYLKGGKNQVVHCGSAANQKCKSDRHHCEYDEHHKTVNCQTPV; listed as Monascus pilosus)”, the “growth inhibition of P. variotii” value with P. variotii BCRC 33174 (0.2 μg of purified MAFP1 protein on 6 mm paper disc, PDA plate) is “can significantly inhibit the growth”. The “dependence of growth inhibition of pathogenic fungus on MAFP1 concentration” value is “the higher the MAFP1 concentration, the stronger the inhibitory activity” with P. variotii BCRC 33174 (setting [1]) and “the higher the MAFP1 concentration, the stronger the inhibitory activity” with H. panici BCRC 35004 (setting [1]). The “growth inhibition of H. panici” value in the assay with H. panici BCRC 35004 (0.4 μg of purified MAFP1 protein on 6 mm paper disc, PDA plate) is recorded as “can significantly inhibit the growth”.
